Tests used:
[1] = Tissue distribution by quantitative whole-body autoradiography (QWBA); assay type: in vivo; conditions: rat QWBA
Experimental: ADME studies (including QWBA in pigmented and non‐pigmented rats) using radiolabeled ribociclib were conducted in rat and dog. Relevant institutional and national guides for the care and use of laboratory animals were followed.
QWBA studies were conducted with the tritium label in Hanover Wistar and partially pigmented Long‐Evans rats. A further QWBA study was conducted with the carbon‐14 label in male Long Evans rats in order to support the dosimetry calculation for the human ADME study. Briefly, 40‐µm thick lengthwise dehydrated whole body sections were exposed for 1 day to Fuji BAS III imaging plates (Fuji Photo Film Co., Ltd., J‐Tokyo) in a lead‐shielded box and room temperature, and scanned in a Fuji BAS 5000 phosphor imager at a 50‐µm scanning step. Concentrations of total radiolabeled components in the tissues were determined by comparative densitometry and digital analysis of the autoradiogram; blood samples of known radioactivity concentrations processed under the same conditions as the samples to analyze were used as calibrators.

[2] = Human ADME study: mass balance, excretion of radioactivity in urine and feces; assay type: in vivo; conditions: for radioactive dose excreted in urine: N=6, after 504 hours, mean; for Cumulative excretion of radioactivity, Total (urine and feces, mean) / Cumulative excretion of radioactivity, Urine (mean): single oral dose 600 mg, healthy male volunteers, n=6
Experimental: This single‐center, open‐label, single oral dose study enrolled six healthy, non‐smoking, male Caucasian volunteers who were determined as being in good health according to their medical history, physical examination, vital signs, electrocardiogram, laboratory tests, and urinalysis. Healthy male volunteers were selected as the foundation of the extensive human ADME data should be based on a small cohort (6) of young healthy male volunteers with subsequent extension/bridging to actual patients as needed for the investigation of variables such as age, gender, ethnicity, and health on the metabolic profile. Subjects with relevant radiation exposure of > 0.2 mSv in the 12 months prior to the initiation of the study were excluded. […] The study protocol and dosimetry calculations were reviewed by the Independent Ethics Committee for the center, and written informed consent was obtained from all subjects before entering the study.
Subjects continued to fast for 4 hours after drug administration.
Radioactivity contents in urine and feces homogenates were determined at the bioanalytical laboratory of PRA International, Zuidlaren, the Netherlands. For urine, duplicate (1000 µL) aliquots were placed into 7‐mL glass vials (Perkin Elmer), after which 5 mL of scintillation cocktail (Ultima Gold™, Perkin Elmer) was added. After vortex mixing for 5 seconds, each sample was placed in a Tri‐Carb™ 3100 TR liquid scintillation analyzer (Perkin Elmer, Waltham, MA, USA) 30 minutes before counting. The total [^14C]‐radioactivity of the samples was determined by counting until a statistical error (two standard deviations) of 0.5% was obtained with a counting time of 10 or 30 minutes, depending on the level of radioactivity.
For feces homogenates, quadruplicate, accurately weighed (500 mg) aliquots were dried in a stove at 50 °C for 3 hours. […] The absorber agent for CO2 was 7‐mL Carbo‐Sorb® E (Perkin Elmer). At the end of the combustion cycle, the absorber was mixed with 13 mL of the scintillant Permafluor® E (Perkin Elmer). The samples were placed in the liquid scintillation analyzer for 60 minutes before counting. The total [^14C]‐radioactivity of the samples was determined by counting until a statistical error (2 s) of 0.5% was obtained with a counting time of 10 or 30 minutes, depending on the level of radioactivity.

For `CN(C)C(=O)c1cc2cnc(Nc3ccc(N4CCNCC4)cn3)nc2n1C1CCCC1` [ribociclib, Ribociclib], which “time of last measurable concentration (total radioactivity)” value (“time of last measurable concentration” below) ([1]; 52 of 58 tissues investigated) is on record?
The value was no more than 48 h.

And the “time of last measurable concentration” value ([1]; eyes and meninges, last observation time point)?
Its value is 840 h.

And the “tissue distribution of total radioactivity” value ([1]; intravenous or oral dose)?
Its value is “marked distribution into the extravascular compartment, except for brain”.

What about the “time of last measurable concentration” value ([1]; lymph nodes, preputial gland, testis) of the same molecule?
Its value is 168 h.

And the “radioactive dose excreted in urine” value ([2]; human, single oral 600 mg [14C]-ribociclib)?
Its value is 22.6%.

What about the “radioactive dose excreted in urine” value ([2]; human, single oral 600 mg [14C]-ribociclib, listed as [^14C]‐ribociclib) of the same molecule?
Its value is 22.6 ± 5.39%.

And the “mass balance (total recovery of radioactivity)” value ([2]; human, single oral 600 mg [14C]-ribociclib, N=6, mean)?
Its value is 91.7 ± 1.01%.

And the “Oral absorption (estimate)” value ([2]; human, radioactivity in urine plus radiolabeled metabolites in feces, assuming all formed systemically)?
The value was “approximately 58.8%”.

What about the “Cumulative excretion of radioactivity, Total (urine and feces, mean)” value (“Cumulative excretion … (urine and feces, mean)” for short) ([2]; time 0 h) of the same molecule?
Its value is 0 % of dose.

And the “Cumulative excretion of radioactivity, Urine (mean)” value (“Cumulative excretion … (mean)” below) ([2]; time 0 h)?
The value was 0 % of dose.

And the “Cumulative excretion … (mean)” value ([2]; time 6 h)?
Its value is 4.85 % of dose.

What about the “Cumulative excretion … (mean)” value ([2]; time 12 h) of the same molecule?
The value was 9.15 % of dose.

What about the “Cumulative excretion … (urine and feces, mean)” value ([2]; time 24 h) of the same molecule?
Its value is 17.2 % of dose.

And the “Cumulative excretion … (mean)” value ([2]; time 24 h)?
The value was 12.9 % of dose.

What about the “Cumulative excretion … (urine and feces, mean)” value ([2]; time 48 h) of the same molecule?
The value was 47.5 % of dose.

And the “Cumulative excretion … (mean)” value ([2]; time 48 h)?
Its value is 17.0 % of dose.

What about the “Cumulative excretion … (urine and feces, mean)” value ([2]; time 72 h) of the same molecule?
The value was 63.9 % of dose.

And the “Cumulative excretion … (mean)” value ([2]; time 72 h)?
Its value is 19.0 % of dose.

What about the “Cumulative excretion … (urine and feces, mean)” value ([2]; time 96 h) of the same molecule?
The value was 75.9 % of dose.

And the “Cumulative excretion … (mean)” value ([2]; time 96 h)?
The value was 20.2 % of dose.

What about the “Cumulative excretion … (urine and feces, mean)” value ([2]; time 120 h) of the same molecule?
Its value is 79.7 % of dose.

What about the “Cumulative excretion … (mean)” value ([2]; time 120 h) of the same molecule?
The value was 20.9 % of dose.

What about the “Cumulative excretion … (urine and feces, mean)” value ([2]; time 144 h) of the same molecule?
The value was 83.8 % of dose.

What about the “Cumulative excretion … (mean)” value ([2]; time 144 h) of the same molecule?
The value was 21.4 % of dose.

And the “Cumulative excretion … (urine and feces, mean)” value ([2]; time 168 h)?
Its value is 86.7 % of dose.

What about the “Cumulative excretion … (mean)” value ([2]; time 168 h) of the same molecule?
Its value is 21.8 % of dose.

What about the “Cumulative excretion … (urine and feces, mean)” value ([2]; time 216 h) of the same molecule?
Its value is 88.6 % of dose.

What about the “Cumulative excretion … (mean)” value ([2]; time 216 h) of the same molecule?
The value was 22.2 % of dose.

What about the “Cumulative excretion … (urine and feces, mean)” value ([2]; time 240 h) of the same molecule?
The value was 89.1 % of dose.

What about the “Cumulative excretion … (mean)” value ([2]; time 240 h) of the same molecule?
The value was 22.3 % of dose.

And the “Cumulative excretion … (urine and feces, mean)” value ([2]; time 264 h)?
Its value is 89.6 % of dose.

What about the “Cumulative excretion … (mean)” value ([2]; time 264 h) of the same molecule?
The value was 22.5 % of dose.

What about the “Cumulative excretion … (urine and feces, mean)” value ([2]; time 288 h) of the same molecule?
Its value is 90.3 % of dose.

What about the “Cumulative excretion … (mean)” value ([2]; time 288 h) of the same molecule?
Its value is 22.5 % of dose.

And the “Cumulative excretion … (urine and feces, mean)” value ([2]; time 336 h)?
Its value is 90.9 % of dose.

What about the “Cumulative excretion … (mean)” value ([2]; time 336 h) of the same molecule?
Its value is 22.6 % of dose.

And the “Cumulative excretion … (urine and feces, mean)” value ([2]; time 360 h)?
The value was 91.1 % of dose.

And the “Cumulative excretion … (mean)” value ([2]; time 360 h)?
The value was 22.6 % of dose.

And the “Cumulative excretion … (urine and feces, mean)” value ([2]; time 384 h)?
The value was 91.3 % of dose.

What about the “Cumulative excretion … (mean)” value ([2]; time 384 h) of the same molecule?
The value was 22.6 % of dose.

What about the “Cumulative excretion … (urine and feces, mean)” value ([2]; time 408 h) of the same molecule?
Its value is 91.4 % of dose.

And the “Cumulative excretion … (mean)” value ([2]; time 408 h)?
Its value is 22.6 % of dose.

What about the “Cumulative excretion … (urine and feces, mean)” value ([2]; time 432 h) of the same molecule?
Its value is 91.6 % of dose.

And the “Cumulative excretion … (mean)” value ([2]; time 432 h)?
The value was 22.6 % of dose.

What about the “Cumulative excretion … (urine and feces, mean)” value ([2]; time 456 h) of the same molecule?
Its value is 91.6 % of dose.

What about the “Cumulative excretion … (mean)” value ([2]; time 456 h) of the same molecule?
The value was 22.6 % of dose.

What about the “Cumulative excretion … (urine and feces, mean)” value ([2]; time 480 h) of the same molecule?
Its value is 91.7 % of dose.

And the “Cumulative excretion … (mean)” value ([2]; time 480 h)?
Its value is 22.6 % of dose.

And the “Cumulative excretion … (urine and feces, mean)” value ([2]; time 504 h)?
Its value is 91.7 % of dose.

And the “Cumulative excretion … (mean)” value ([2]; time 504 h)?
Its value is 22.6 % of dose.

— article PMC7287031 (Pharmacology Research & Perspectives, 2020)
